This note sets out measurements from patent US12496301B2, “Use of androgen receptor degrader for the treatment of spinal and bulbar muscular atrophy” (Arvinas Operations, Inc., priority 2023, dated 2025).

One test concerns polyQ-AR. Nature of the test: polyQ-AR degradation in SBMA patient hiPSC-derived myotubes, capillary immunoassay. The following applies: two donor hiPSC lines, 24 hours. It is filed as cell-based, human. The method, then: Lysates for hiPSC-derived myotubes were prepared in lysis buffer ([…], 50 mM sodium chloride, 1% NP-40, 1% SDS) supplemented with Halt Protease Inhibitor (78437 Thermo Fisher Scientific), Benzonase, and MgCl2 (1 mM final concentration). The lysates were cleared by centrifugation at 4° C. and supernatants were quantified using the BIO-RAD DC protein assay (5000112 BIO-RAD). The AR and protein levels were quantified by an automated capillary immunoassay experiment (ProteinSimple). The AR and Myosin Protein levels were quantified and normalized to total protein.
Control and SBMA hiPSCs were differentiated into myotubes as previously described (Caron, L. et al. 2016, STEM CELLS Transl. Med. 5, 1145-1161) using the skeletal muscle differentiation kit (Amsbio). hiPSCs were dissociated to single cells using Accutase and plated on Geltrex-coated 10 cm culture plates at a density of 200,000 cells per plate with SBMA hiPSCs in skeletal muscle induction media (SKM01, AMSBIO). Media changes were performed every second day until cells were confluent (˜7 days). The resulting myogenic precursor cells were then dissociated to single cells using Accutase and replated on Matrigel-coated 24-well tissue culture plate with 500 μL of cells at 35,000 cells per mL in skeletal myoblast media (SKM02, AMSBIO). Half media changes were performed every second day until myoblasts reached confluence (˜7 days). The media was then switched to myotube medium (SKM03, ASMBIO). Media changes every second day until myotube formation was confirmed by microscopy. Myotubes were treated on day 20 of differentiation (6 days' worth of SKM03 media) with compounds diluted in DMSO for a final DMSO concentration of 0.01% in SKM03 media. The cells were lysed 24 hours later in Pierce RIPA buffer (Cat. No. 89900, ThermoFisher) supplemented with 1× Halt protease inhibitor cocktail (Cat. No. 87786, ThermoFisher), 1 mM MgCl2, and 1 μL Benzonase Nuclease. AR protein was measured by capillary electrophoresis. […]

The next test has as its system hAR100Q mice. The test can be described thus: Efficacy in hAR100Q murine model of SBMA (body weight, grip strength, treadmill, survival). It is filed as in vivo, mouse. The text has this:
(§1) Male mice harboring approximately 73±14 copies of full-length human AR harboring 100 CAG repeats in exon 1 (hAR100Q) (“hAR100Q mice”) were used in this study. hAR100Q mice were obtained from mice (C57BL/6J background) expressing heterozygous human […] AR100Q (AR100Q+/−) under the control of the cytomegalovirus immediate-early enhancer and the chicken beta-actin (pCAGGS) promoter. These transgenic lines were maintained, and the colony expanded by breeding with C57BL/6J (Jackson Laboratory) wild-type (WT) mice.
(§2) A total of […] hAR100Q and 20 littermate controls were used for this study. Each genotype was divided into two groups of 10 (control vs Compound A) giving a total of four separate groups (WT control, WT Compound A, hAR100Q control, and hAR100Q Compound A). All mice were fed control chow beginning at 4 weeks of age. At 5 weeks of age, treated groups were switched to Compound A-formulated chow and the remaining mice were fed control chow. Body weights were recorded weekly starting at 5 weeks of age.
(§3) Compound A was formulated at 100 parts per million (ppm) Compound A in rodent chow (Purina #5015). This dose level (100 ppm) approximates a 15 mg/kg dose for a mouse that weighs 20 g and consumes 3 g of chow per day. For control chow, rodent chow (Purina #5015) was re-pelleted in an identical manner to the Compound A-formulated chow.
(§4) A grip strength apparatus was utilized to measure the force exerted by the forepaws only, or all four paws of mice once per week beginning at 7 weeks of age. The apparatus was placed on a sturdy flat lab bench and the apparatus's grid wire mesh was used for all four paws. Individual mice grasped a wire mesh (all four paws) and were gently pulled by the base of their tail to measure their maximum force exerted to maintain their grip. The grip strength assay was conducted 6 times per mouse, for all four paws.
(§5) A Touchscreen Treadmill was utilized to analyze length of time running at increasing speeds until exhaustion. Individual mice ran on a flat treadmill with a graded acceleration protocol consisting of 10 meters (m)/min. for the first 40 min., with the speed increasing thereafter by increments of 1 m/min. every 10 min. for 30 min., and then finally increasing speed by increments of 1 m/min. every 5 min. until the mice were exhausted. The exhaustion was determined by 5 consecutive seconds or 20 overall seconds of failure to exercise (by staying on shock rods at the start of the treadmill). Treadmill training was performed for 2 days before the first week of testing. The training protocol on day 1 consisted of 5 min. at 8 m/min, while day 2 consisted of 5 min. at 8 m/min. followed by 5 min. at 10 m/min.
(§6) In the murine model of SBMA used here (hereafter referred to as hAR100Q mice), which also expresses endogenous mouse AR, approximately 73±14 copies of full-length human AR with 100 CAG repeats (hAR100Q) are driven by the pCAGGS promoter (Chivet, M. et al. 2020, Cells 9, 325). Heterologous expression of hAR100Q results in muscle atrophy, motor deficits, and premature death (Chivet, M. et al. 2020, Cells 9, 325). Symptom onset starts as early as 8 weeks of age and get progressively worse until week 13-14, at which time mice are euthanized because of extreme immobility. In this study, male hAR100Q mice and littermate controls (10 mice in each group) were fed vehicle chow or Compound A-formulated chow at an approximate dose of 15 mg/kg. In-diet dosing was used in lieu of PO dosing due to the fragile nature of this disease model. Compound A-formulated chow was introduced at 5 weeks of age. In addition to weekly weight measurements, mice were evaluated using behavioral assays, including weekly grip strength measurements and forced treadmill tests at 11 weeks of age.

Assay in test [1]: as above
It counts as in vivo, mouse.
Description: as §1, §2, §3, §4, §5, §6

On to `CC(C)N(CC1CCN(c2ncc(C(=O)N[C@H]3C(C)(C)[C@H](Oc4ccc(C#N)c(Cl)c4)C3(C)C)cn2)CC1)[C@H]1C[C@H](Oc2ccc3c(c2)C(=O)N(C2CCC(=O)NC2=O)C3=O)C1` (stereo partly drawn) [Compound A, N-((1r,3r)-3-(3-chloro-4-cyanophenoxy)-2,2,4,4-tetramethylcyclobutyl)-2-(4-((((1r,3r)-3-((2-(2,6-dioxopiperidin-3-yl)-1,3-dioxoisoindolin-5-yl)oxy)cyclobutyl)(isopropyl)amino)methyl)piperidin-1-yl)pyrimidine-5-carboxamide], for which, in the test with polyQ-AR, the DC50 was in the range of 0.6 to 0.8 nM and the “Dmax, polyQ-AR in SBMA hiPSC-myotubes” value is listed as 83-96%. For the same compound, the median lifespan in the test with hAR100Q mice (hAR100Q mice, formulated chow, birth to euthanasia) amounted to 151 days. Besides, in the test with hAR100Q mice (hAR100Q mice, week 11, chow approx. 15 mg/kg), the “muscle endurance, forced treadmill distance, hAR100Q mice” value is reported as “performed as well as WT littermates”. Further, the “all paw grip strength in hAR100Q mice” value with hAR100Q mice (hAR100Q mice, weekly from 7 weeks, chow approx. 15 mg/kg) was “delayed the decline and magnitude of grip strength decline”. For the same compound, in the test with hAR100Q mice (male hAR100Q mice, formulated chow approx. 15 mg/kg from 5 weeks of age, vs vehicle), the “body weight over time in hAR100Q mice” value was “rescued weight loss”. For the same compound, the “all paw grip strength in WT littermates” value in test [1] (WT littermates, chow approx. 15 mg/kg, vs vehicle) is recorded as “similar”. In addition, in test [1] (WT littermates, week 11, vehicle versus compound chow), the “muscle endurance, forced treadmill distance, WT littermates” value is “No differences were observed”. The “body weight over time in WT littermates” value in test [1] (male WT littermates, formulated chow approx. 15 mg/kg) is recorded as “no impact”.
